Here are results for six compounds from article PMC3884839, “Pharmacokinetics and pharmacodynamics utilizing unbound target tissue exposure as part of a disposition-based rationale for lead optimization of benzoxaboroles in the treatment of Stage 2 Human African Trypanosomiasis” (Parasitology, 2013).

As a reminder, the Papp A→B is the apparent permeability from the apical to the basolateral side of a cell layer.

The conditions of series [1]: human patients, 24 h after last injection of multi-day regimen; ref Burri and Keiser, [2001]; cited from earlier work.
For series [2] the following is noted: intravenous 2·2–3·6 mg kg^−1, uninfected vervet monkeys; ref Burri et al. [1994]; cited from earlier work.
Another series has as its system T. brucei. Particulars: cited from earlier work.
For series [3] the following is noted: cited from earlier work.
The subject of the next series is T. b. brucei. The series can be described thus: Serum-shift assay (effect of foetal calf serum on trypanocidal IC50). Format: cell-based, Trypanosoma brucei brucei. Particulars: 72 h, relative to 2·5% serum. As to the method:
To assess the potential effects of protein binding on trypanocidal activity, parasite viability assays were performed in the presence of increasing concentrations (2·5–50%) of foetal calf serum (Invitrogen, Carlsbad, CA) in HMI-9 media. T. b. brucei parasites were conditioned to the test serum concentrations for at least one round of passage prior to assay. Test compounds were added, incubated for 72 h, signal measured and IC50 determinations were conducted as described above using the resazurin endpoint. The fold change in IC50 from minimal serum concentration to maximal serum concentration was calculated and used to compare compounds and their potential for being restrictively protein bound.

Details of series [4]: method as in Milford et al. [1993]. Particulars: human patients; ref Milford et al. [1993]; cited from earlier work.
On the set-up of series [5]: method as in Sanderson et al. [2008]. Particulars: mice; ref Sanderson et al. [2008]; cited from earlier work.
A further series concerns P-gp (human MDR1). The series can be described thus: MDCKII-hMDR1 monolayer permeability and Pgp-mediated efflux. Format: in vitro ADME. Conditions: dog, 3 μM. The procedure:
(§1) The propensity of test compounds to cross the BBB was examined using an in vitro MDCKII-hMDR1 monolayer assay (Polli et al. [2001]). In summary, MDCKII-hMDR1 cells (Netherlands Cancer Institute, Amsterdam, the Netherlands) were seeded at a density of 3×10^5 cells per well onto microporous polycarbonate membranes in 12 well Costar Transwell plates (Corning Inc., Lowell, MA). The cells were incubated for 3 days during which time they formed confluent monolayers. Trans-epithelial resistance (TEER) was measured for each insert to ensure the integrity of the monolayer (acceptable TEER >160 Ω cm^2). The permeability and susceptibility for Pgp-mediated efflux was evaluated by adding each compound at a concentration of 3 μM, in the presence or absence of 2 μM GF120918 (a potent Pgp inhibitor), to the apical compartment. Competency of the Pgp efflux transporter was confirmed by assay of propranolol (non-substrate) and amprenavir (substrate). Cell monolayers were incubated in triplicate with shaking (160 rpm) at 37 °C in a 5% CO2-enriched humidified atmosphere for 1 h. Samples were removed from the apical and basolateral compartments after incubation and assayed for test compound concentrations by LC-MSMS. Values for mass balance, PappA−B, PappA−B+GF918, and absorption quotient (AQ) were calculated for each compound (Troutman and Thakker, [2003]; Thiel-Demby et al. [2004]). Acceptance criterion for mass balance was 70–120%.

For series [6], the system named is MDCKII-hMDR1 monolayer (Pgp efflux transporter). Described as above. Format: in vitro ADME. Conditions: for Mass balance A–B+GF918 / Mass balance A–B: 3 μM; for Mass balance A–B+GF918: with GF918; for Mass balance A–B: without GF918. As to the method:
as §1

Another series has as its system L929 mammalian cell line. The series is described as follows: L929 mammalian cell cytotoxicity / selectivity. Format: cell-based. Conditions: parasite vs L929.
The nature of series [7]: Binding to human plasma protein by rapid equilibrium dialysis. Conditions: 1 μg mL^−1. Format: in vitro ADME. The procedure:
Binding to plasma proteins, brain homogenates or proteins in serum-fortified HMI-9 media was determined by rapid equilibrium dialysis (RED) (Pierce, Rockford, IL) using a 48-well plate-based format according to the manufacturer's instructions. Briefly, test compound was added to fresh plasma (Bioreclamation, Liverpool, NY) at the required concentrations, freshly prepared brain homogenate or media. Duplicate aliquots of each sample were transferred into the sample chambers of the RED devices, and dialysis buffer (BupH PBS) was added to the buffer chambers. The plates were sealed and incubated at 37 °C for 4 h. After dialysis, samples collected from the buffer and tissue chambers were treated with ice-cold methanol (3 volumes for plasma or HMI-9 media, 4 volumes for brain) to precipitate proteins. The treated samples were centrifuged for 10 min at approximately 3000 g at 15 °C. The supernatants were assayed for test compound by LC-MSMS. Calibration standards and quality control samples were prepared in matched matrix and assayed with samples. Values for unbound and bound fractions and mass balance were calculated. Concordance of binding for each batch of plasma was confirmed by assay of warfarin, imipramine and carbamezapine. Acceptance criterion for mass balance was 70–120%.
On the technique in general: In equilibrium dialysis free small molecules cross a membrane that holds back macromolecules.

Series [8] can be described thus: Single oral dose pharmacokinetics and CNS penetration in male CD-1 mice. Format: in vivo, mouse. The procedure:
The CNS disposition and pharmacokinetics of the benzoxaboroles were evaluated in infected and uninfected mice following oral administration. In vivo phases of single-dose rodent PK studies were performed at Vivisource (Waltham, MA) following Institutional Animal Care and Use Committee (IACUC) review in an Association for Assessment and Accreditation of Laboratory Animal Care International (AAALAC)-approved facility. Studies in Trypanosoma brucei brucei (TREU 667 strain) infected mice, or uninfected satellite animals, were performed after IACUC review at Pace University (NewYork, NY).
Male CD-1 or female Swiss Webster mice (approximately 25 g) were administered test compounds by oral gavage either once (QD) or twice per day (Q12 h) with doses ranging between 6 and 100 mg kg^−1 as described below. All compounds were formulated as an in situ sodium salt in 2% (v/v) ethanol, 5% (m/v) dextrose, to yield typically clear colourless solutions that were administered at 4 mL kg^−1. Blood samples for pharmacokinetic studies were collected into polypropylene tubes containing K2EDTA anticoagulant and stored on wet ice until centrifuged and processed to plasma. Plasma was stored at −80 °C. Blood samples from mice were collected via cardiac puncture under terminal anaesthesia. Rodents were euthanized in a CO2 chamber before collection of terminal blood or tissue samples. Brain tissues were blotted dry and stored at approximately −80 °C.
Plasma (50 μL) was treated with 4 volumes of ice-cold methanol (containing 25 ng mL^−1 of either deuterium (d6)-labelled SCYX-7158 internal standard (SCYX-5232) for SCYX-7158 analyses or a related benzoxaborole for other compounds) to precipitate proteins. Treated samples were gently mixed on a 96-well plate shaker for approximately 10 min then centrifuged at approximately 3000 g and 15 °C for 15 min. Supernatants were transferred to fresh 96-well plates for analysis by means of LC-MSMS. Samples of tissue homogenate (50 μL), or buffer from protein binding studies, were treated similarly to plasma samples.
All biological samples were assayed by a verified LC-MSMS method employing two dimensional chromatographic separation to overcome ion suppression (Annesely, [2003]) caused by co-elution of endogenous components with benzoxaboroles. In summary, treated samples were loaded onto Phenomenex (Torrance, CA) Synergi Polar RP, 4 μ, 50×2 mm extraction columns and subsequently back-eluted onto a Phenomenex Luna C8(2) 3 μ, 50×2 mm analytical columns protected by a Phenomenex C8 guard cartridge. Mobile phases for extraction and analytical columns consisted of 5 mM ammonium formate and 0·1% (v/v) formic acid in water (A), and 5 mM ammonium formate and 0·1% (v/v) formic acid in methanol (B). […]

In a further series the test system is T. b. brucei (TREU 667). The series can be described thus: Murine model of Stage 2 (CNS) HAT. Particulars: oral administration. Format: in vivo, mouse. As to the method: The efficacy of benzoxaboroles was evaluated in a murine model of Stage 2 (CNS) HAT (Nare et al. [2010]; Jacobs et al. [2011]). In summary, mice (n = 10 per group) were infected by bolus i.p. injection of 1×10^4 T. b. brucei (TREU 667) parasites. A single bolus i.p. dose (10 mg kg^-1) of berenil (Sigma-Aldrich, St. Louis, MO) was administered on day 4 as a positive treatment control for haemolymphatic-stage infection. Infection of the remaining animals proceeded for 21 days to establish a CNS infection before treatment with either a single dose of berenil (as above) or test compounds by the oral route either once or twice daily over 7 days at the doses indicated below. Animals were checked at least weekly for parasitaemia and were immediately removed from cages and euthanized upon recrudescence. Animals were considered cured if they were […] for at least 180 days after treatment.

The mark [9] stands for this setting: MDCK-MDR1, with GF120918 2 μM, with 2 μM GF120918, read-out: Papp, A–B direction+GF918.
[10] abbreviates: MDCK-MDR1, read-out: Papp, A–B direction.

Like-named read-outs stand apart in the source and are kept apart here.

As for `Nc1nc(N)nc(Nc2ccc([As]3SCC(CO)S3)cc2)n1` (stereo not shown) [melarsoprol], in series [1], the CSF concentration was 39 to 79 ng/mL. Also, in [2], the “maximum concentration in CSF” value was approximately 50 ng/mL. Further, in the series on T. brucei (ref Burri et al. [1994]), the “in vitro MIC” value is 2 to 100 ng/mL. The “drug-induced death, patients” value in [3] (Stage 2 HAT patients, ref Schmid et al. [2004], Doua et al. [2005], Kuepfer et al. [2012]) is reported as 2–10%. The “failure rate with treatment” value in [3] (ref Legros et al. [1999]) is on record as 3–30%.
In the case of `Cc1ccc(C(=O)Nc2ccc(S(=O)(=O)O)c3cc(S(=O)(=O)O)cc(S(=O)(=O)O)c23)cc1NC(=O)c1cccc(NC(=O)Nc2cccc(C(=O)Nc3cc(C(=O)Nc4ccc(S(=O)(=O)O)c5cc(S(=O)(=O)O)cc(S(=O)(=O)O)c45)ccc3C)c2)c1` [suramin], in the series with T. b. brucei, the “fold change in IC50 between 2·5 and 50% calf serum” value is on record as 26 fold.
On to `NCCCC(N)(C(=O)O)C(F)F` (stereo not shown) [eflornithine], for which the “in vitro MIC” value with T. brucei (ref Sanderson et al. [2008]) is recorded as “ca. 50 μM”. Also, the “CSF level at steady state” value in [4] is 5 to 150 nM. Further, in series [5], the “maximum concentration (CNS exposure)” value was 10 to 40 nM.
With `O=C(Nc1ccc2c(c1)B(O)OC2)c1ccccc1C(F)(F)F` [AN3520], in the series with P-gp (human MDR1) (setting [9]), the apical-to-basolateral permeability (Papp A→B) at 1 h, 3 μM stood at 43.4 ×10⁻⁶ cm/s. In addition, the apical-to-basolateral permeability (Papp A→B) at 1 h, 3 μM with P-gp (human MDR1) (setting [10]) was found to be 42.4 ×10⁻⁶ cm/s. Also, in series [6], the P-gp classification entry is given as “Non-substrate”, the “Mass balance A–B+GF918” value was determined as 90% and the “Mass balance A–B” value came to 92%. Besides, the Selectivity entry with L929 mammalian cell line is recorded as “⩾94”. This compound had a Mass balance in series [7] of 110%.
Regarding `[O-][S+](c1ccc(Cl)cc1)c1ccc2c(c1)B(O)OC2` (stereo not shown) [AN2920], the apparent permeability from apical to basolateral (Papp A→B) at 1 h, 3 μM with P-gp (human MDR1) (setting [9]) was found to be 46.5 ×10⁻⁶ cm/s. Also, in the series on P-gp (human MDR1) (setting [10]), the Papp A→B at 1 h, 3 μM stood at 43.8 ×10⁻⁶ cm/s. In series [6], the P-gp classification entry is listed as “Non-substrate”, the “Mass balance A–B+GF918” value came out at 99% and the “Mass balance A–B” value is reported as 94%. The Selectivity result in the series with L929 mammalian cell line is given as “⩾49”. Moreover, the Mass balance in [7] is recorded as 106%. For the same compound, the “time CNS (brain) total concentration above MIC” value in series [8] is recorded as 1 h. The “time plasma concentration maintained above MIC” value in series [8] (total concentration) is “approximately 7 h”.
In the case of `O=C(Nc1ccc2c(c1)B(O)OC2)c1ccc(F)cc1C(F)(F)F` [SCYX-6759], in the series on P-gp (human MDR1) (setting [9]), the Papp A→B at 1 h, 3 μM is 38.6 ×10⁻⁶ cm/s. Besides, the apical-to-basolateral permeability (Papp A→B) at 1 h, 3 μM in the series with P-gp (human MDR1) (setting [10]) stood at 37.9 ×10⁻⁶ cm/s. Also, in series [6], the P-gp classification result is given as “Non-substrate”, the “Mass balance A–B+GF918” value came out at 95% and the “Mass balance A–B” value came out at 89%. Further, the Selectivity entry with L929 mammalian cell line was “⩾136”. Moreover, the “cures in the CNS (Stage 2) murine model” value with T. b. brucei (TREU 667) came to 100%. The compound also yielded a Mass balance in series [7] of 97%. The “time CNS (brain) total concentration above MIC” value in [8] is on record as “approximately 10 h”.
